Our source for the AC50 values is PubChem BioAssay AID651703 (Broad Institute, 2012).

A value given as a limit tells only on which side of the number the result lay.

The assay concerns the target Transforming acidic coiled-coil-containing protein 3 (Homo sapiens) (UniProt Q9Y6A5). The assay is described as follows: ARNT/TACC3 interaction disruptors, potency, confirmation, biochemical, AlphaScreen, cherry-picked samples (AID 651703).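 Note: TACC3 partner is the GST-tagged E629A mutant dimer; hits lower the signal meaning they disrupt ARNT binding to TACC3.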 Particulars: AlphaScreen His-ARNT PAS-B / GST-TACC3 binding, luminescence. (In general: Bead proximity is the source of the signal in Alpha formats.)
As to `CC1CC1C(=O)Nc1nc(-c2ccccn2)cs1` (configuration not stated), the half-maximal activity concentration (AC50) is 15.2 µM.

Take `c1ccc(-c2nccc(-c3ccco3)n2)nc1`: the AC50 is 11.2 µM. The same measure for `Cc1nc2ccccc2c(=O)n1/N=C/c1ccc(O)c(O)c1O`: 25.9 µM; for `Cc1ccc(NC(=O)CN(C)C(=O)COc2cccc3cccnc23)cc1`: 41.7 µM. Under `COc1ccc2nc(/N=C/c3c(C)[nH]n(-c4ccc(C)cc4)c3=O)sc2c1` stands 46.3 µM; under `O=C(N[C@@H]1CC[C@H](CCn2cc(-c3ccccn3)nn2)O[C@H]1CO)c1ccccc1`, 27.6 µM. Under `Cc1ccccc1C(=O)Nc1nnc(-c2ccco2)o1` stands 43.1 µM; under `c1ccc(-c2nnc(-c3ccccn3)nn2)nc1`, 28.8 µM. With `O=C(CSc1ccc(-c2ccccn2)nn1)NCc1ccc(Cl)cc1`, the AC50 is 11 µM. Under `c1ccc(CCNc2nc(-c3ccccn3)nnc2-c2ccccc2)cc1` stands 0.513 µM; under `O=C(CNCc1ccccn1)N1CCc2ccccc2C1`, 3.23 µM; under `COc1cc2c(cc1OC)-c1c3c(cc4c1[C@@H](C2)N(C)CC4)OCO3`, 17.6 µM. Consider `CC(=O)Nc1ccc(Oc2nc(-c3ccccn3)nc3ccccc23)cc1`, for which the AC50 is 7.02 µM.

On to `COc1ccc(C(=O)Nc2nnc(C3=COCCO3)o2)cc1`, for which the AC50 was 24.9 µM.

For the molecule `NS(=O)(=O)c1ccc(N=Nc2c[nH]c(=O)c(O)c2)cc1`, the AC50 was 57.9 µM. On to `CN1CCN(C2CCN(Cc3ccc(O)c4ncccc34)CC2)CC1`, for which the AC50 is 2.3 µM. As to `Cc1ccccc1-n1c(SCC(=O)Nc2ccc3c(c2)OCO3)nnc1-c1ccccn1`, the AC50 was 15.6 µM. Regarding `Cc1ccc(Nc2c(-c3ccccn3)nc3cccc(C)n23)cc1`, the AC50 is 3.62 µM. The same measure for `Cc1cccc(C(=O)Nc2nnc(-c3cccnc3)o2)c1`: 21.7 µM; for `CCCCCc1cc(=O)oc2c(C(CCN(CC)CC)c3ccc(N(C)C)cc3)c(OC)cc(OC)c12` (configuration not stated): 5.02 µM. In the case of `Cc1cccc(S(=O)(=O)N[C@H]2CC[C@H](CCn3cc(-c4ccccn4)nn3)O[C@H]2CO)c1`, the AC50 is 18.5 µM.

Consider `O=C(Nc1nc(-c2ccccn2)cs1)c1cc(Cl)ccc1[N+](=O)[O-]`, for which the AC50 is 3.07 µM. Take `O=C(N/N=C/c1cc([N+](=O)[O-])ccc1O)c1ccncc1`: the AC50 was 1.01 µM. The same measure for `O=C(COC(=O)c1ccc(O)cc1O)Nc1nnc(-c2ccccc2)o1`: 13.7 µM; for `O=S(=O)(N[C@H]1CC[C@@H](CCn2cc(-c3ccccn3)nn2)O[C@H]1CO)c1cccc(Cl)c1`: 23.4 µM; for `O=c1cc(-c2ccc(O)cc2)oc2c(O)c(O)c(O)c(O)c12`: 63 µM. The same measure for `C[C@H]1CN([C@@H](C)CO)C(=O)c2cccc(NC(=O)Nc3cccc4ccccc34)c2O[C@@H]1CN(C)S(=O)(=O)c1ccc(Cl)cc1`: 51.9 µM. With `Cc1ccc(CNc2nc(-c3ccccn3)nnc2-c2ccccc2)cc1`, the concentration at half-maximal activity (AC50) is 0.736 µM.

Turning to `O=S(=O)(N[C@@H]1CCCN(Cc2ccc(OCCO)cc2)C1)c1cccc2cccnc12`, the AC50 was 16.2 µM.

For the molecule `O=C(CN1C(=O)/C(=C\c2cccs2)SC1=S)Nc1cccc(C(=O)O)c1`, the AC50 is 26.3 µM. On to `O=C(NNc1ccccn1)C(=O)NNS(=O)(=O)c1ccc(F)cc1`, for which the AC50 is 15.5 µM. Under `Clc1cccc(CNc2nc(-c3ccccn3)nnc2-c2ccccc2)c1` stands 1.05 µM; under `C[C@@H](Nc1nc(-c2ccccn2)nnc1-c1ccccc1)c1ccccc1`, 0.77 µM. On to `COc1ccc2nc(-c3ccccn3)[nH]c2c1`, for which the AC50 was 29 µM. Under `COc1cc(-c2nnc(NC(=O)CS(=O)(=O)c3ccc(F)cc3)o2)cc(OC)c1OC` stands 24.3 µM. The same measure for `COC(=O)c1ccc(C(=O)O)nc1`: 32.8 µM; for `Cc1ccc(S(=O)(=O)/N=C2\C=C(Nc3ccc(O)cc3)C(=O)c3ccccc32)cc1`: 3.43 µM; for `CCCC(=O)NC(c1ccccc1)c1ccc2cccnc2c1O` (configuration not stated): 4.6 µM. For `CC1OC(CC(=O)O)CC2=C1C(=O)c1c(O)cccc1C2=O` (configuration not stated), the concentration at half-maximal activity (AC50) is 46.9 µM. For `Cc1cccc(NC(=O)CCC(=O)N/N=C/c2ccc(O)cc2O)c1`, the concentration at half-maximal activity (AC50) was 22.4 µM. The same measure for `COc1ccccc1NC(=O)CSc1ccc(-c2ccccn2)nn1`: 3.1 µM; for `Cc1nnc(NC(=O)c2ccc(S(=O)(=O)N3CC(C)OC(C)C3)cc2)o1` (configuration not stated): 44.6 µM. On to `O=c1[nH]c(N2CCOCC2)cc2ccccc12`, for which the AC50 is 63.8 µM. Under `O=C(CSc1ccc(-c2ccccn2)nn1)Nc1nccs1` stands 2.93 µM; under `CCCOc1ccc(/C=N/Nc2cc(N3CCOCC3)ncn2)c(O)c1`, 8 µM; under `O=C(N[C@H]1CC[C@@H](CCn2cc(-c3ccccn3)nn2)O[C@@H]1CO)c1ccc(F)cc1`, 14.8 µM. The same measure for `COc1ccc(NC(=O)N[C@@H]2CC[C@@H](CCn3cc(-c4ccccn4)nn3)O[C@H]2CO)cc1`: 28.6 µM.

On to `COc1cc(CNCc2ccccn2)ccc1OCc1ccc(Cl)cc1Cl`, for which the AC50 is 36.6 µM. As for `C/C(=N\NC(=O)C(c1ccccc1)c1ccccc1)c1ccc(O)cc1`, the AC50 was 43.1 µM. The same measure for `c1ccc(-c2nnc(-c3ccccn3)nc2Nc2nc3ccccc3s2)cc1`: 0.509 µM; for `O=S1(=O)N=C(N/N=C/c2ccccn2)c2ccccc21`: 4.02 µM. `CCN(C(=O)COc1cccc2cccnc12)C1CCS(=O)(=O)C1` (configuration not stated): the AC50 is 45.1 µM. As to `COc1ccc(NC(=O)Nc2ccc3c(c2)CC(=O)N([C@@H](C)CO)C[C@@H](C)[C@H](CN(C)Cc2ccc(Oc4ccccc4)cc2)O3)cc1`, the AC50 is 23.2 µM. Under `O=C(CSc1ccc(-c2ccccn2)nn1)Nc1ccccc1` stands 1.96 µM. `Nn1c(SCC(=O)Nc2ccc3c(c2)OCCO3)nnc1-c1ccccn1`: the AC50 was 18.6 µM.

Regarding `O=C(CSc1ccc2nnc(-c3ccccn3)n2n1)Nc1ccc2c(c1)OCO2`, the AC50 was 46.5 µM.

Take `CCCCCOc1ccc(NC(=O)CSc2cccc3cccnc23)cc1`: the AC50 is 9.17 µM. The same measure for `CC(C)(C)C1=Nn2c(nnc2-c2ccccn2)SC1`: 6.44 µM. The same measure for `CCOc1ccccc1C(=O)OCC(=O)Nc1nnc(-c2ccccc2)o1`: 23.3 µM; for `c1ccc(-c2nnc(SCc3nc4ccccc4[nH]3)n2Cc2ccco2)nc1`: 19.8 µM; for `Cc1ccsc1C(=O)Nc1nnc(-c2ccco2)o1`: 9.04 µM.

With `CCOC(=O)N1CCN(S(=O)(=O)c2ccc(C(=O)Nc3nnc(C4CC4)o3)cc2)CC1`, the AC50 is 13.4 µM. Under `COc1ccc(S(=O)(=O)N2CCCOC2CNC(=O)C(=O)NCCCn2ccnc2)cc1OC` (configuration not stated) stands 47.2 µM.

For `CN(C)c1nc(-c2ccccn2)nnc1-c1ccccc1`, the AC50 was less than 0.5 µM.

Consider `Cc1ccc(Nc2c(-c3ccccn3)nc3cc(C)ccn23)cc1`, for which the AC50 is 3.02 µM. Under `CCOc1cc(CNCc2ccccn2)cc(Cl)c1OCC` stands 45 µM.

Turning to `Oc1c(C(c2ccccn2)N2CCCCC2)cc(Cl)c2cccnc12` (configuration not stated), the AC50 was 1.33 µM. On to `Cn1nc(-c2ccccn2)nc2c(=O)n(C)c(=O)nc1-2`, for which the AC50 was less than 0.5 µM.

As to `O=C(CSc1ccc(-c2ccccn2)nn1)c1ccccc1`, the AC50 is 3.36 µM. With `Cc1cc(NC(c2ccc(Cl)cc2)c2ccc3cccnc3c2O)no1` (configuration not stated), the AC50 was 10.2 µM.

Regarding `Cc1cccc(CNc2nc(-c3ccccn3)nnc2-c2ccccc2)c1`, the AC50 is less than 0.5 µM. As for `O=C(Nc1nc(NC(=O)c2ccco2)n(-c2ccccc2)n1)c1ccccc1`, the AC50 is 12.9 µM. With `O=C(Nc1nc(-c2ccccn2)cs1)C12CC3CC(CC(O)(C3)C1)C2`, the AC50 is 6.45 µM. Under `Cc1n[nH]c(=O)nc1N/N=C/c1ccco1` stands 42.5 µM; under `Cc1[nH]n(-c2ccccc2)c(=O)c1/C=N/NC(=O)c1cccc(F)c1`, 9.69 µM; under `COc1ccc([Si](C)(C)[C@@H]2[C@@H](CCO)O[C@]3(C(=O)N4c5c(cc(OC)cc53)C(C)=CC4(C)C)[C@H]2C)cc1`, 11.3 µM. `O=C(CSc1ccc(-c2ccccn2)nn1)N1CCCC1`: the AC50 is 3.05 µM.

As to `O=S(=O)(N[C@@H]1CC[C@H](CCn2cc(-c3ccccn3)nn2)O[C@H]1CO)c1cccc(Cl)c1`, the AC50 is 22 µM. With `Cc1ccccc1CS(=O)(=O)Cc1ccc(C(=O)NCc2ccccn2)o1`, the AC50 is 31.6 µM. For `CN(C)CCN(C(=O)c1ccc2c(c1)CCCC2)c1nc2cc3c(cc2s1)OCCO3`, the AC50 is 19.9 µM. With `CCc1cc(C(=O)Nc2nc(-c3ccccn3)cs2)sc1C`, the AC50 was 22.9 µM.

Regarding `COc1ccc(C2CC(=O)Oc3c(C(CCN4CCCCC4)c4ccc(N(C)C)cc4)c(OC)cc(OC)c32)cc1` (configuration not stated), the AC50 was 10.2 µM. Under `Cc1ccccc1-n1c(O)c(/C=N/NC(=O)c2ccncc2)c(=O)[nH]c1=O` stands 11.5 µM. The same measure for `O=C(COc1ccccc1)Nc1nnc(-c2ccccc2)o1`: 16.5 µM. Take `O=C(NCCCn1ccnc1)Nc1ccc(Cl)c(Cl)c1`: the AC50 is 25.2 µM.

`c1ccc(-c2cnc(-c3ccccn3)nn2)cc1`: the concentration at half-maximal activity (AC50) was 3.23 µM. The same measure for `O=C(CSc1n[nH]c(-c2ccccn2)n1)Nc1ccc(Cl)cc1`: 2.08 µM. Under `Cc1ncc(CO)c(/C=N/NC(=O)c2cc(Br)ccc2O)c1O` stands 8.86 µM; under `Cc1ccc(S(=O)(=O)CCc2nnc(NC(=O)c3ccccn3)s2)cc1`, 3.01 µM; under `Cc1ccc(S(=O)(=O)N2CCOCC2)cc1NC(=O)CNCc1ccccn1`, 6.07 µM. The same measure for `C[C@H](CO)N1C[C@H](C)[C@@H](CN(C)S(=O)(=O)c2ccc(Cl)cc2)Oc2c(NC(=O)Nc3cccc4ccccc34)cccc2C1=O`: 62 µM; for `O=C(N[C@H]1CC[C@@H](CCn2cc(-c3ccccn3)nn2)O[C@@H]1CO)c1ccncc1`: 15.8 µM. As to `CC(=O)NC(c1ccco1)c1cc(F)c2cccnc2c1O` (configuration not stated), the AC50 is 5.76 µM. For `N#CCC(=O)N/N=C\c1ccccc1OC/C=C/c1ccccc1`, the AC50 was 6.51 µM.

In the case of `COc1cc(NCCCCCCN)c2ncccc2c1OC`, the AC50 is 16.1 µM. With `O=C(CSc1ccc2nnc(-c3ccccn3)n2n1)NCC1CCCO1` (configuration not stated), the AC50 is 49.7 µM. The same measure for `CCCCCC/C=N/Nc1nnc(Cc2ccc(OC)c(OC)c2)c(=O)[nH]1`: 25.1 µM.

The AC50 is the concentration giving half of the maximal activity seen.
